Measured values: article PMC10006169, “A phase I trial of LXS196, a protein kinase C (PKC) inhibitor, for metastatic uveal melanoma” (British Journal of Cancer, 2023)
Like-named read-outs stand apart in the source and are kept apart here.

Assay: Plasma pharmacokinetics (LC-MS/MS)
Format: in vivo, human
Conditions: human, plasma, oral; for Tmax: read-out: Tmax, Median (Min, max)
Procedure: In the dose escalation part of the study, PK samples were collected at various pre- and post-dose time points on C1D1, D2, D3, D15 and D16. Drug concentrations were assessed using a validated liquid chromatography-tandem mass spectrometry assay.

`CC1(N)CCN(c2cccnc2NC(=O)c2nc(-c3ncccc3C(F)(F)F)cnc2N)CC1` [LXS196] showed an AUC(0-t) (300 mg, C1D1, 300 mg BID, n=17, read-out: AUC0-t, Geo-mean) of 18700 ng·h/mL, an AUC(0-t) (300 mg, C1D1, 300 mg BID, n=17, read-out: AUC0-t, Mean (SD)) of 20500 ng·h/mL and an AUC(0-t) (300 mg, C1D1, 300 mg BID, n=17, read-out: AUC0-t, Median (Min, max)) of 17000 ng·h/mL. The Cmax (300 mg, C1D1, 300 mg BID, n=17, read-out: Cmax, Geo-mean) was 3850 ng/mL, the Cmax (300 mg, C1D1, 300 mg BID, n=17, read-out: Cmax, Mean (SD)) was 4100 ng/mL and the Cmax (300 mg, C1D1, 300 mg BID, n=17, read-out: Cmax, Median (Min, max)) was 4210 ng/mL. It also gave a Tmax (300 mg, C1D1, 300 mg BID, n=17) of 1 h, an AUC(0-t) (300 mg, C1D1, 300 mg QD, n=15, read-out: AUC0-t, Geo-mean) of 34000 ng·h/mL and an AUC(0-t) (300 mg, C1D1, 300 mg QD, n=15, read-out: AUC0-t, Mean (SD)) of 40200 ng·h/mL. It also gave an AUC(0-t) (300 mg, C1D1, 300 mg QD, n=15, read-out: AUC0-t, Median (Min, max)) of 34400 ng·h/mL, an AUC(0-inf) (300 mg, C1D1, 300 mg QD, n=15, read-out: AUCinf, Geo-mean) of 42100 ng·h/mL and an AUC(0-inf) (300 mg, C1D1, 300 mg QD, n=15, read-out: AUCinf, Mean (SD)) of 51300 ng·h/mL. The AUC(0-inf) (300 mg, C1D1, 300 mg QD, n=15, read-out: AUCinf, Median (Min, max)) was 43100 ng·h/mL, the Cmax (300 mg, C1D1, 300 mg QD, n=15, read-out: Cmax, Geo-mean) was 4940 ng/mL and the Cmax (300 mg, C1D1, 300 mg QD, n=15, read-out: Cmax, Mean (SD)) was 5580 ng/mL. The Cmax (300 mg, C1D1, 300 mg QD, n=15, read-out: Cmax, Median (Min, max)) was 5370 ng/mL, the half-life (300 mg, C1D1, 300 mg QD, n=15, read-out: T1/2, Geo-mean (converted)) was 10.7 h and the half-life (300 mg, C1D1, 300 mg QD, n=15, read-out: T1/2, Mean (SD) (converted)) was 10.8 h. It also gave a half-life (300 mg, C1D1, 300 mg QD, n=15, read-out: T1/2, Median (Min, max) (converted)) of 11.1 h, a Tmax (300 mg, C1D1, 300 mg QD, n=15) of 1 h and an AUC(0-t) (300 mg, C1D15, 300 mg BID, n=12, read-out: AUC0-t, Geo-mean) of 18300 ng·h/mL. It also gave an AUC(0-t) (300 mg, C1D15, 300 mg BID, n=12, read-out: AUC0-t, Mean (SD)) of 19100 ng·h/mL, an AUC(0-t) (300 mg, C1D15, 300 mg BID, n=12, read-out: AUC0-t, Median (Min, max)) of 17400 ng·h/mL and a Cmax (300 mg, C1D15, 300 mg BID, n=17, read-out: Cmax, Geo-mean) of 2800 ng/mL. It also gave a Cmax (300 mg, C1D15, 300 mg BID, n=17, read-out: Cmax, Mean (SD)) of 2860 ng/mL, a Cmax (300 mg, C1D15, 300 mg BID, n=17, read-out: Cmax, Median (Min, max)) of 2880 ng/mL and a Tmax (300 mg, C1D15, 300 mg BID, n=17) of 0.567 h. It also gave an AUC(0-t) (300 mg, C1D15, 300 mg QD, n=13, read-out: AUC0-t, Geo-mean) of 26500 ng·h/mL, an AUC(0-t) (300 mg, C1D15, 300 mg QD, n=13, read-out: AUC0-t, Mean (SD)) of 30500 ng·h/mL and an AUC(0-t) (300 mg, C1D15, 300 mg QD, n=13, read-out: AUC0-t, Median (Min, max)) of 27900 ng·h/mL. For the same compound, the Cmax (300 mg, C1D15, 300 mg QD, n=14, read-out: Cmax, Geo-mean) was 3500 ng/mL, the Cmax (300 mg, C1D15, 300 mg QD, n=14, read-out: Cmax, Mean (SD)) was 3860 ng/mL and the Cmax (300 mg, C1D15, 300 mg QD, n=14, read-out: Cmax, Median (Min, max)) was 3310 ng/mL. It also gave a concentration at 15 day (300 mg, C1D15, 300 mg QD, n=14, read-out: Cmin, Median (Min, max)) of 326 ng/mL, a Tmax (300 mg, C1D15, 300 mg QD, n=14) of 1 h and an AUC(0-t) (400 mg, C1D1, 400 mg BID, n=5, read-out: AUC0-t, Geo-mean) of 16800 ng·h/mL. For the same compound, the AUC(0-t) (400 mg, C1D1, 400 mg BID, n=5, read-out: AUC0-t, Mean (SD)) was 18100 ng·h/mL, the AUC(0-t) (400 mg, C1D1, 400 mg BID, n=5, read-out: AUC0-t, Median (Min, max)) was 18200 ng·h/mL and the AUC(0-inf) (400 mg, C1D1, 400 mg BID, n=5, read-out: AUCinf, Geo-mean) was 28400 ng·h/mL. The AUC(0-inf) (400 mg, C1D1, 400 mg BID, n=5, read-out: AUCinf, Mean (SD)) was 30400 ng·h/mL, the AUC(0-inf) (400 mg, C1D1, 400 mg BID, n=5, read-out: AUCinf, Median (Min, max)) was 31700 ng·h/mL and the Cmax (400 mg, C1D1, 400 mg BID, n=5, read-out: Cmax, Geo-mean) was 3730 ng/mL. It also gave a Cmax (400 mg, C1D1, 400 mg BID, n=5, read-out: Cmax, Mean (SD)) of 4350 ng/mL, a Cmax (400 mg, C1D1, 400 mg BID, n=5, read-out: Cmax, Median (Min, max)) of 3850 ng/mL and a half-life (400 mg, C1D1, 400 mg BID, n=5, read-out: T1/2, Geo-mean (converted)) of 13.5 h. The half-life (400 mg, C1D1, 400 mg BID, n=5, read-out: T1/2, Mean (SD) (converted)) was 13.8 h, the half-life (400 mg, C1D1, 400 mg BID, n=5, read-out: T1/2, Median (Min, max) (converted)) was 14.5 h and the Tmax (400 mg, C1D1, 400 mg BID, n=5) was 1.03 h. It also gave an AUC(0-t) (400 mg, C1D15, 400 mg BID, n=4, read-out: AUC0-t, Geo-mean) of 15700 ng·h/mL, an AUC(0-t) (400 mg, C1D15, 400 mg BID, n=4, read-out: AUC0-t, Mean (SD)) of 15900 ng·h/mL and an AUC(0-t) (400 mg, C1D15, 400 mg BID, n=4, read-out: AUC0-t, Median (Min, max)) of 16000 ng·h/mL. The Cmax (400 mg, C1D15, 400 mg BID, n=4, read-out: Cmax, Geo-mean) was 2070 ng/mL, the Cmax (400 mg, C1D15, 400 mg BID, n=4, read-out: Cmax, Mean (SD)) was 2100 ng/mL and the Cmax (400 mg, C1D15, 400 mg BID, n=4, read-out: Cmax, Median (Min, max)) was 2060 ng/mL. It also gave a Tmax (400 mg, C1D15, 400 mg BID, n=4) of 0.842 h, an AUC(0-t) (500 mg, C1D1, 500 mg QD, n=10, read-out: AUC0-t, Geo-mean) of 48000 ng·h/mL and an AUC(0-t) (500 mg, C1D1, 500 mg QD, n=10, read-out: AUC0-t, Mean (SD)) of 50700 ng·h/mL.
